This passage reports IC50 results from US10556902B2 (Asceneuron SA, priority 2016, dated 2020).

For this assay, the target named is His-Tagged hOGA (human O-GlcNAcase) (Homo sapiens (Human), UniProt O60502). Kind of assay: Human O-GlcNAcase enzyme inhibition assay.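 Also: reactions contained 20 nM His-tagged hOGA enzyme with 10 µM FL-GlcNAc substrate.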 The class given is biochemical. Particulars: OGA enzyme inhibition assay; FL-GlcNAc substrate, pH 6.5; activity classes defined in μM; read-out: OGA IC50.
His-Tagged hOGA (human O-GlcNAcase), sequence (O60502 whole entry): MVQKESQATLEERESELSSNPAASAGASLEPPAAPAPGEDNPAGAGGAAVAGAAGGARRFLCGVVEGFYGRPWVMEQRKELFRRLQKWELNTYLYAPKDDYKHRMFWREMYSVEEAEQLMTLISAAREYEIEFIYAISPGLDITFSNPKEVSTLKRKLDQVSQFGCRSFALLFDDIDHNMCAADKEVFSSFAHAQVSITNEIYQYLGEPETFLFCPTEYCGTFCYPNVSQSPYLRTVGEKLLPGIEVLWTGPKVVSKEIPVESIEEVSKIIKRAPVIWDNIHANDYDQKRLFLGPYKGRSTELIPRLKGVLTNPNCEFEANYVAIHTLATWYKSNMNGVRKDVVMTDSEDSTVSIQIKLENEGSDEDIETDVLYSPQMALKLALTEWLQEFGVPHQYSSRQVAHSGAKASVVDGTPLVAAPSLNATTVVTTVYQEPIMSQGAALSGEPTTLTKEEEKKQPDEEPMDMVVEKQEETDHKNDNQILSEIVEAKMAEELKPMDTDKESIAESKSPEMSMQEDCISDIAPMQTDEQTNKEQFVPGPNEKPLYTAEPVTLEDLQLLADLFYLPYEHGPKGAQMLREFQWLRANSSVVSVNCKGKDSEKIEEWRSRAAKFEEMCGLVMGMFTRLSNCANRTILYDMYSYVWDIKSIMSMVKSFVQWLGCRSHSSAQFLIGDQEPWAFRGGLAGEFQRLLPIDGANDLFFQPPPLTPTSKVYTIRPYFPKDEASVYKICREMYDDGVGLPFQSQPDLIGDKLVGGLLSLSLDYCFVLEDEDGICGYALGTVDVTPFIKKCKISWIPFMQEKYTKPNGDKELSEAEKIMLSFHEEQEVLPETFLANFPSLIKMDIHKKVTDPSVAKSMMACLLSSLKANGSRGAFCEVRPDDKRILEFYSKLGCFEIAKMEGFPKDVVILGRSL
Procedure: Then, 20 nM of His-Tagged hOGA and 10 μM of FL-GlcNAc (Fluorescein mono-beta-D-(2-deoxy-2-N-acetyl) glucopyranoside; Marker Gene Technologies Inc, M1485) were added to the 384-well plate for a final volume of 20 μl.
Regarding `CC(=O)N1CCc2nc(N3CCN(C(C)c4ccc5nccnc5c4)CC3)sc2C1` (racemic) [Example 11, 1-(2-(4-(1-(quinoxalin-6-yl)ethyl)piperazin-1-yl)-6,7-dihydrothiazolo[5,4-c]pyridin-5(4H)-yl)ethan-1-one], the concentration for half-maximal inhibition (IC50) (as a rule, the concentration needed to halve the response being measured) lay within 0.05 to 0.2 µM.
In the case of `CC(c1ccc2c(c1)OCC2)N1CCN(c2nc3c(s2)CNCC3)CC1` (single isomer, unassigned) [Example 17] it was below 0.05 µM.
In the case of `Cc1nnc(N2CCN(C(C)c3ccc4nccnc4c3)CC2)s1` (racemic) [Example 116, 2-methyl-5-(4-(1-(quinoxalin-6-yl)ethyl)piperazin-1-yl)-1,3,4-thiadiazolequinoxaline] it was 0.2 to 1 µM.
In the case of `CC(c1ccc2c(c1)OCC2)N1CCN(c2nc3c(s2)C(=O)N(C)CC3)CC1` (racemic) [Example 13, 2-(4-(1-(2,3-dihydrobenzofuran-6-yl)ethyl)piperazin-1-yl)-5-methyl-6,7-dihydrothiazolo[5,4-c]pyridin-4(5H)-one] it was below 0.05 µM; in that of `CC(c1ccc2nccnc2c1)N1CCN(c2nnc(CN(C)C)s2)CC1` (racemic) [Example 125, N,N-dimethyl-1-(5-(4-(1-(quinoxalin-6-yl)ethyl)piperazin-1-yl)-1,3,4-thiadiazol-2-yl)methanamine], 0.2 to 1 µM.
Consider `Cc1nnc(C2CCN(C(C)c3ccc4nccnc4c3)CC2)o1` (racemic) [Example 24, 2-methyl-5-(1-(1-(quinoxalin-6-yl)ethyl)piperidin-4-yl)-1,3,4-oxadiazole], for which the IC50 was 0.2 to 1 µM.
Regarding `CC(C)C(O)c1ccc(N2CCN(C(C)c3ccc4c(c3)OCC4)CC2)nc1` (racemic) [Example 49, 1-(6-(4-(1-(2,3-dihydrobenzofuran-6-yl)ethyl)piperazin-1-yl)pyridin-3-yl)-2-methylpropan-1-ol], the concentration for half-maximal inhibition (IC50) was below 0.05 µM.
In the case of `CC(c1ccc2nccnc2c1)N1CCN(c2nnc(C(=O)N(C)C)s2)CC1` (racemic) [Example 122, N,N-dimethyl-5-(4-(1-(quinoxalin-6-yl)ethyl)piperazin-1-yl)-1,3,4-thiadiazole-2 carboxamide] it was 0.2 to 1 µM; in that of `CC(c1ccc2nccnc2c1)N1CCN(c2ccc(=O)[nH]n2)CC1` (single isomer, unassigned) [Example 38, (S)-6-(4-(1-(quinoxalin-6-yl)ethyl)piperazin-1-yl)pyridazin-3(2H)-one or (R)-6-(4-(1-(quinoxalin-6-yl)ethyl)piperazin-1-yl)pyridazin-3(2H)-one], 0.05 to 0.2 µM.
In the case of `CC(c1ccc2c(c1)OCC2)N1CCN(c2nc3c(s2)CN(C)CC3)CC1` (racemic) [Example 16, 2-(4-(1-(2,3-dihydrobenzofuran-6-yl)ethyl)piperazin-1-yl)-5-methyl-4,5,6,7-tetrahydrothiazolo[5,4-c]pyridine] it was below 0.05 µM; in that of `CC(c1ccc2c(c1)OCC2)N1CCN(c2ncc(C3(O)CC3)cn2)CC1` (racemic) [Example 76, 1-(2-(4-(1-(2,3-dihydrobenzofuran-6-yl)ethyl)piperazin-1-yl)pyrimidin-5-yl)cyclopropan-1-ol], below 0.05 µM.
Regarding `Cc1ccc(N2CCN(C(C)c3ccc4nccnc4c3)CC2)nn1` (racemic) [Example 44, 6-(1-(4-(6-Methylpyridazin-3-yl)piperazin-1-yl)ethyl)quinoxaline], the concentration for half-maximal inhibition (IC50) was 0.2 to 1 µM.
In the case of `CC(=O)Nc1cnn(C2CCN(C(C)c3ccc4c(c3)OCC4)CC2)c1` (racemic) [Example 25, N-(1-(1-(1-(2,3-dihydrobenzofuran-6-yl)ethyl)piperidin-4-yl)-1H-pyrazol-4-yl)acetamide] it was 0.05 to 0.2 µM; in that of `CNC(=O)c1nnc(N2CCN(C(C)c3ccc4nccnc4c3)CC2)s1` (racemic) [Example 121, N-methyl-5-(4-(1-(quinoxalin-6-yl)ethyl)piperazin-1-yl)-1,3,4-thiadiazole-2-carboxamide], 0.2 to 1 µM; in that of `COC(=O)c1cnc(N2CCN(C(C)c3ccc4c(c3)OCC4)CC2)nc1` (racemic) [Example 98, Methyl 2-(4-(1-(2,3-dihydrobenzofuran-6-yl)ethyl)piperazin-1-yl)pyrimidine-5-carboxylate], below 0.05 µM.
Under `CC(c1ccc2nccnc2c1)N1CCN(c2ccc(C3(O)CCOCC3)cn2)CC1` (racemic) [Example 57, 4-(6-(4-(1-(quinoxalin-6-yl)ethyl)piperazin-1-yl)pyridin-3-yl)tetrahydro-2H-pyran-4-ol] stands 0.05 to 0.2 µM; under `CC(c1ccc2c(c1)OCC2)N1CCN(c2ccc(C(F)(F)F)nn2)CC1` (racemic) [Example 40, 3-(4-(1-(2,3-dihydrobenzofuran-6-yl)ethyl)piperazin-1-yl)-6-(trifluoromethyl)pyridazine], below 0.05 µM.
In the case of `CC(c1ccc2c(c1)OCC2)N1CCN(c2nnc(CO)s2)CC1` (racemic) [Example 113, (5-(4-(1-(2,3-dihydrobenzofuran-6-yl)ethyl)piperazin-1-yl)-1,3,4-thiadiazol-2-yl)methanol] it was below 0.05 µM; in that of `CC(c1ccc2nccnc2c1)N1CCN(c2ncc3c(n2)CCN(C)C3)CC1` (racemic) [Example 9, 6-methyl-2-(4-(1-(quinoxalin-6-yl)ethyl)piperazin-1-yl)-5,6,7,8-tetrahydropyrido[4,3-d]pyrimidine], below 0.05 µM; in that of `CC(c1ccc2c(c1)OCC2)N1CCN(c2ncc(C(=O)N(C)C)cn2)CC1` (racemic) [Example 100, 2-(4-(1-(2,3-dihydrobenzofuran-6-yl)ethyl)piperazin-1-yl)-N,N-dimethylpyrimidine-5-carboxamide], below 0.05 µM.
With `CC(c1ccc2nccnc2c1)N1CCN(c2ccc(C3(O)CCCC3)cn2)CC1` (racemic) [Example 61, 1-(6-(4-(1-(quinoxalin-6-yl)ethyl)piperazin-1-yl)pyridin-3-yl)cyclopentan-1-ol], the IC50 lay within 0.05 to 0.2 µM.
`COc1ccc(N2CCN(C(C)c3ccc4nccnc4c3)CC2)cn1` (racemic) [Example 53, 6-(1-(4-(6-methoxypyridin-3-yl)piperazin-1-yl)ethyl)quinoxaline]: the IC50 fell in the range of 0.2 to 1 µM.
Consider `CC(c1ccc2c(c1)OCC2)N1CCN(c2ccc(C(=O)O)cn2)CC1` (racemic) [Example 65, 6-(4-(1-(2,3-Dihydrobenzofuran-6-yl)ethyl)piperazin-1-yl)nicotinic acid], for which the IC50 was below 0.05 µM.
In the case of `CC(c1ccc2c(c1)OCC2)N1CCN(c2ncc(C3(O)CCOCC3)cn2)CC1` (racemic) [Example 81, 4-(2-(4-(1-(2,3-dihydrobenzofuran-6-yl)ethyl)piperazin-1-yl)pyrimidin-5-yl)tetrahydro-2H-pyran-4-ol], the IC50 is below 0.05 µM.
As for `CC(c1ccc2nccnc2c1)N1CCN(c2ncc(C(=O)O)cn2)CC1` (racemic) [Example 106, 2-(4-(1-(quinoxalin-6-yl)ethyl)piperazin-1-yl)pyrimidine-5-carboxylic acid], the half-inhibitory concentration (IC50) fell in the range of 0.05 to 0.2 µM.
In the case of `CC(c1ccc2cccnc2n1)N1CCN(c2ncc(C(F)(F)F)cn2)CC1` (racemic) [Example 92, 2-(1-(4-(5-(trifluoromethyl)pyrimidin-2-yl)piperazin-1-yl)ethyl)-1,8-naphthyridine] it was 0.05 to 0.2 µM.
